From the NIST ThermoML archive (doi:10.1021/je900266h)

Tests used:
[1] = refractive index (Na D-line) (dimensionless); mn = molality of the nth substance listed, in mol/kg; settings: 101 kPa, Liquid, Standard Abbe refractometry
[2] = refractive index (Na D-line) (dimensionless); wn = mass fraction of the nth substance listed; settings: 101 kPa, Liquid, Standard Abbe refractometry, w2 = 0
[3] = refractive index (Na D-line) (dimensionless); settings: 101.33 kPa, Liquid, Standard Abbe refractometry

O=S(=O)([O-])[O-].[Li+].[Li+] [lithium sulfate] + O
refractive index, [1]
Settings | 288.15 K | 298.15 K | 308.15 K | 318.15 K
m1 = 0.252 | 1.3383 | 1.33727 | 1.33612 | 1.33446
m1 = 0.4681 | 1.34212 | 1.34096 | 1.33987 | 1.33812
m1 = 0.7337 | 1.34651 | 1.34534 | 1.34419 | 1.3426
m1 = 0.9917 | 1.35062 | 1.34944 | 1.34829 | 1.3467
m1 = 1.245 | 1.3544 | 1.35316 | 1.35198 | 1.35056
m1 = 1.468 | 1.35752 | 1.35628 | 1.35518 | 1.35375
m1 = 1.756 | 1.3614 | 1.36011 | 1.35905 | 1.35765
m1 = 1.757 | 1.36143 | 1.36015 | 1.35909 | 1.35767
m1 = 1.939 | 1.36365 | 1.36242 | 1.36134 | 1.35998
m1 = 2.124 | 1.36601 | 1.36472 | 1.36368 | 1.36227
m1 = 2.306 | 1.36812 | 1.36691 | 1.36574 | 1.36453
m1 = 2.542 | 1.3709 | 1.36964 | 1.3685 | 1.3672
m1 = 2.798 | 1.3736 | 1.37243 | 1.37124 | 1.37003
m1 = 2.983 | 1.37551 | 1.37442 | 1.37316 | 1.37206
m1 = 3.158 | 1.37704 | – | – | –
m1 = 3.22 | 1.37774 | – | – | –

O [water] + O=S(=O)([O-])[O-].[Mg+2]
[1], m2 = 0
Settings | refractive index
288.15 K | 1.33339
298.15 K | 1.33248
308.15 K | 1.33128
318.15 K | 1.32979

O [water] + CCO
[2]
Settings | refractive index
288.15 K | 1.33339
298.15 K | 1.33248
308.15 K | 1.33128
318.15 K | 1.32979

O [water] + O=S(=O)([O-])[O-].[Cu+2]
[1], m2 = 0
Settings | refractive index
288.15 K | 1.33339
298.15 K | 1.33248
308.15 K | 1.33128
318.15 K | 1.32979

O=S(=O)([O-])[O-].[Mg+2] [magnesium sulfate] + O
refractive index, [1]
Settings | 288.15 K | 298.15 K | 308.15 K | 318.15 K
m1 = 0.2096 | 1.33858 | 1.33762 | 1.33629 | 1.33491
m1 = 0.3448 | 1.34163 | 1.34072 | 1.3393 | 1.33803
m1 = 0.5911 | 1.3471 | 1.34594 | 1.34463 | 1.34335
m1 = 0.7832 | 1.35115 | 1.35009 | 1.34872 | 1.34735
m1 = 0.9997 | 1.35558 | 1.35438 | 1.35295 | 1.3516
m1 = 1.19 | 1.35934 | 1.3581 | 1.35667 | 1.35532
m1 = 1.379 | 1.36292 | 1.36174 | 1.36037 | 1.35894
m1 = 1.621 | 1.3674 | 1.36613 | 1.36468 | 1.36342
m1 = 1.867 | 1.37176 | 1.37039 | 1.36899 | 1.3677
m1 = 2.12 | 1.376 | 1.37469 | 1.3732 | 1.37185
m1 = 2.36 | 1.37993 | 1.37853 | 1.37709 | 1.37586
m1 = 2.592 | 1.38344 | 1.38211 | 1.38069 | 1.37944
m1 = 2.859 | – | 1.38613 | 1.38461 | 1.38352
m1 = 3.087 | – | 1.38927 | 1.3878 | 1.38662
m1 = 3.347 | – | – | 1.39151 | 1.39026
m1 = 3.579 | – | – | 1.3945 | 1.39328
m1 = 3.807 | – | – | – | 1.39614
m1 = 3.998 | – | – | – | 1.39817

O [water]
[3]
Settings | refractive index
288.15 K | 1.33339
298.15 K | 1.33248
308.15 K | 1.33128
318.15 K | 1.32979

CCO [ethanol]
[3]
Settings | refractive index
288.15 K | 1.36344
298.15 K | 1.35922
308.15 K | 1.35477
318.15 K | 1.35068

O [water] + O=S(=O)([O-])[O-].[Li+].[Li+]
[1], m2 = 0
Settings | refractive index
288.15 K | 1.33339
298.15 K | 1.33248
308.15 K | 1.33128
318.15 K | 1.32979

O=S(=O)([O-])[O-].[Cu+2] [copper sulfate] + O
refractive index, [1]
Settings | 288.15 K | 298.15 K | 308.15 K | 318.15 K
m1 = 0.1346 | 1.33752 | 1.33658 | 1.33528 | 1.33371
m1 = 0.3007 | 1.34217 | 1.34125 | 1.33987 | 1.33834
m1 = 0.4408 | 1.34604 | 1.3451 | 1.3436 | 1.34204
m1 = 0.5896 | 1.35008 | 1.34915 | 1.34753 | 1.34587
m1 = 0.7359 | 1.35392 | 1.35287 | 1.35129 | 1.34951
m1 = 0.859 | 1.35712 | 1.35606 | 1.35427 | 1.35249
m1 = 1.016 | 1.36104 | 1.36002 | 1.35816 | 1.35632
m1 = 1.179 | 1.3651 | 1.36398 | 1.36209 | 1.36027
m1 = 1.301 | 1.36803 | 1.367 | 1.365 | 1.36305
m1 = 1.456 | – | 1.3706 | 1.36872 | 1.36664
m1 = 1.579 | – | – | 1.37162 | 1.36952
m1 = 1.736 | – | – | – | 1.37296
m1 = 1.891 | – | – | – | 1.37632
m1 = 2.058 | – | – | – | 1.38013
